Source: patent publication US11555015B2, “Compounds useful in the treatment of autoimmune and inflammatory disorders” (Arena Pharmaceuticals, Inc., priority 2018, dated 2023)

Target: S1P1 (Homo sapiens, UniProt P21453)
Assay: Beta arrestin assay (in vitro S1P1 activity)
Format: cell-based
Conditions: in vitro beta-arrestin agonist assay
Protocol: The in vitro S1P1 activity was determined in the beta arrestin assay.

Chain of S1P1 (P21453 whole entry, species assumed): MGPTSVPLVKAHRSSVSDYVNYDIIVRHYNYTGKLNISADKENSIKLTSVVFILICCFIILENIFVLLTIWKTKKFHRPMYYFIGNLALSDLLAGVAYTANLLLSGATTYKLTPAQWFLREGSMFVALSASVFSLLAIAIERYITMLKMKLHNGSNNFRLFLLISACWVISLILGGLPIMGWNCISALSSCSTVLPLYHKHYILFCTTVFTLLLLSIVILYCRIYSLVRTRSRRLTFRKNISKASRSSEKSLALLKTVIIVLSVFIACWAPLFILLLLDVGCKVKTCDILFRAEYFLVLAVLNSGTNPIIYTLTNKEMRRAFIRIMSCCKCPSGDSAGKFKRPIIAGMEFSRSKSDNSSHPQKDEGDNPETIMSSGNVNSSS

SMILES	EC50 [nM]
O=C(O)CC1CCc2c1[nH]c1ccc(OCc3ccc(C4CCC(O)C4)c(C(F)(F)F)c3)cc21 (single isomer, unassigned) [Compound 2-2, 2-(7-((4-(3-Hydroxycyclopentyl)-3-(trifluoromethyl)benzyl)oxy)-1,2,3,4-tetrahydrocyclopenta[b]indol-3-yl)acetic Acid]	85.6
O=C(C[C@H]1CCc2c1[nH]c1ccc(OCc3ccc(C4CCCC4)c(C(F)(F)F)c3)cc21)OC1O[C@H](C(=O)O)[C@@H](O)[C@H](O)[C@H]1O (stereo partly drawn) [Compound 1, (2S,3S,4S,5R)-6-(2-((R)-7-((4-cyclopentyl-3-(trifluoromethyl)benzyl)oxy)-1,2,3,4-tetrahydrocyclopenta[b]indol-3-yl)acetoxy)-3,4,5-trihydroxytetrahydro-2H-pyran-2-carboxylic acid]	3.9

Now from value to molecule:

EC50 [nM]	SMILES
16.7	O=C(O)CC1CCc2c1[nH]c1ccc(OCc3ccc(C4CCCC4O)c(C(F)(F)F)c3)cc21 (centres unmarked) [Compound 4-1, 2-(7-((4-(2-Hydroxycyclopentyl)-3-(trifluoromethyl)benzyl)oxy)-1,2,3,4-tetrahydrocyclopenta[b]indol-3-yl)acetic Acid]
52.1	O=C(O)CC1CCc2c1[nH]c1ccc(OCc3ccc(C4CCC(O)C4)c(C(F)(F)F)c3)cc21 (single isomer, unassigned) [Compound 2-1, 2-(7-((4-(3-Hydroxycyclopentyl)-3-(trifluoromethyl)benzyl)oxy)-1,2,3,4-tetrahydrocyclopenta[b]indol-3-yl)acetic Acid]
3.66	O=C(O)CC1CCc2c1[nH]c1ccc(OCc3ccc(C4CCCC4O)c(C(F)(F)F)c3)cc21 (mixture of isomers) [Compound 4, 2-(7-((4-(2-hydroxycyclopentyl)-3-(trifluoromethyl)benzyl)oxy)-1,2,3,4-tetrahydrocyclopenta[b]indol-3-yl)acetic acid]
